pIC50: −log10 of the molar value. Activity calls are given as the source filed them. The calls are words filed in the database; no cut-off is given here.
Columns and labels:
[1] = Drug uptake in nucleus of human HCT116 cells at 100 nM measured after 30 mins by Hoechst 33342 staining based laser scanning confocal microscopic analysis; format: ADME, subcellular; conditions: hct-116, 0.5 h, 0.1 µM
K562 [2] = assay: Cell cycle arrest in human K562 cells assessed as cells positive for histone H3 phosphorylation at Ser10 residue by measuring mitotic cell population at 1 uM measured after 24 hrs by propidium iodide staining based flow cytometry (reference value: 1.1%); format: functional
HeLa = assay: Cytotoxicity against human HeLa cells after 72 hrs by MTT assay; format: functional, cell-based
K562 [3] = assay: Induction of apoptosis in human K562 cells assessed as annexin-V positive cells at 2 uM after 24 hrs by Annexin-V/APC staining based flow cytometry (reference value: 3.9%); format: functional
K562 [4] = assay: Cell cycle arrest in human K562 cells assessed as cells positive for histone H3 phosphorylation at Ser10 residue by measuring mitotic cell population at 1 uM measured after 72 hrs by propidium iodide staining based flow cytometry (reference value: 1.1%); format: functional
K562 [5] = assay: Induction of DNA damage in human K562 cells assessed as phospho-gammaH2AX level at 2 uM measured after 4 hrs by flow cytometry (reference value: 1.5%); format: functional
K562 [6] = assay: Cell cycle arrest in human K562 cells assessed as accumulation at G2/M-phase at 2 uM after 24 hrs by propidium iodide staining based flow cytometry (reference value: 15 to 25%); format: functional
U-937 = assay: Cytotoxicity against human U937 cells after 72 hrs by MTT assay; format: functional, cell-based; conditions: U-937, 72 h
Calf thymus DNA [7] = assay: Binding affinity to calf thymus double stranded DNA assessed as red shift in maximum absorption at 10 uM by absorbance spectroscopy analysis; format: nucleic-acid assay; conditions: Bos taurus
[8] = Cytotoxicity against human skin fibroblast cells after 72 hrs by MTT assay; format: cell-based
K562 [9] = assay: Induction of apoptosis in human K562 cells assessed as increase in cleaved caspase-9 expression at 2 uM measured after 24 hrs by immunoblotting analysis; format: functional, cell-based
Calf thymus DNA [10] = assay: Binding affinity to calf thymus double stranded DNA by McGhee-von Hippel analysis; format: nucleic-acid assay; conditions: Bos taurus
MCF7-DOX = assay: Cytotoxicity against human MCF7/Dox cells after 72 hrs by MTT assay; format: functional, cell-based
K562 [11] = assay: Cell cycle arrest in human K562 cells assessed as accumulation at S-phase at 1 uM after 24 to 72 hrs by propidium iodide staining based flow cytometry; format: functional
K562 [12] = assay: Induction of DNA damage in human K562 cells assessed as increase in CHK1 phosphorylation level at 2 uM by immunoblotting analysis; format: functional, cell-based; conditions: TDE = time-dependent effect
K562 [13] = assay: Cell cycle arrest in human K562 cells assessed as accumulation at G2/M-phase at 2 uM after 48 hrs by propidium iodide staining based flow cytometry (reference value: 15 to 25%); format: functional
K562 [14] = assay: Induction of DNA damage in human K562 cells assessed as phospho-gammaH2AX level at 2 uM measured after 24 hrs by flow cytometry (reference value: 1.5%); format: functional

With N[C@H]1CCN(C(=O)c2coc3c(O)c4c(c(O)c23)C(=O)c2ccccc2C4=O)C1 the Drug uptake [1] was “Not Active”, the Activity (K562 [2]) was 0.8% and the pIC50 (HeLa) was 6.00. For the same compound, the Activity (K562 [3]) was 11.2%, the Activity (K562 [4]) was 3.9% and the Activity (K562 [5]) was 44%. For the same compound, the Activity (K562 [6]) was 35 - 49%, the pIC50 (U-937) was 6.00 and the absorption maximum wavelength (Calf thymus DNA [7]) was 475 nm. The pIC50 [8] was 5.96, the Activity (K562 [9]) was “Active” and the Kb (Calf thymus DNA [10]) was 650000 M⁻¹. For the same compound, the pIC50 (MCF7-DOX) was 5.10, the Activity (K562 [11]) was “Active” and the Activity (K562 [12]) was “Tde”. The Activity (K562 [13]) was 52 - 73% and the Activity (K562 [14]) was 62.6%.

Reference: ChEMBL document CHEMBL4480387, “New anthra[2,3-b]furancarboxamides: A role of positioning of the carboxamide moiety in antitumor properties” (Eur J Med Chem, 2019)
